Laboratory results as given in US20190083646A1, “MUTANT SMOOTHENED AND METHODS OF USING THE SAME” (CURIS, INC., priority 2016, published 2019).

Tests used:
[1] = tested on: metastatic basal cell carcinoma (mBCC); experiment: Vismodegib treatment of metastatic basal cell carcinoma (mBCC) patients, overall response assessment; assay type: in vivo, human
From the text: Clinical responses to targeted therapies (e.g., cancer therapies) can be short-lived due to the acquisition of genetic alterations that confer drug resistance. Identification of resistance mechanisms will guide novel therapeutic strategies. Inappropriate Hh signaling is linked to several cancers, including basal cell carcinoma (BCC). Loss-of-function mutations in PTCH (˜90%) and activating mutations in SMO (˜10%) are the primary drivers in BCC. Clinical mechanisms of resistance to vismodegib (GDC-0449) were identified by assessing vismodegibsensitivity and mutation status of BCCs from patients using the FoundationOne™ next-generation sequencing (NGS) platform. FIG. 1 lists characteristics of the mBCC (metastatic basal cell carcinoma) patients treated with vismodegib.
Patient Treatment Histories
008: patient with metastatic basal cell carcinoma (mBCC). No prior surgery for BCC was reported. Prior systemic therapy for metastatic BCC included the following agent: anthracycline chemotherapy. Sites of metastases at the time of screening included soft tissue in the right hemi pelvis. Measurable lesions were identified on the skin/soft tissue next to the right OS ilium, next to the right femur and ventral surface of the OS sacrum. Non-measurable lesions were identified on the bone destruction region in OS ilium and OS sacrum. The patient received their first dose of 150 mg vismodegib Study Day 1.
001: patient with metastatic basal cell carcinoma (mBCC). Prior surgery for BCC included 6 skin neoplasm excisions. No prior topical or systemic therapy for BCC was reported. Sites of metastases at the time of screening included skin of head. Measurable lesions were identified on skin of head (lymph nodes [besides trachea and infracarinal]). The patient received their first dose of 150 mg vismodegib on Study Day 1.
002: patient with metastatic basal cell carcinoma (mBCC). Prior surgery for BCC included skin neoplasm excision. No prior topical or systemic therapy for BCC was reported. Sites of metastases at the time of screening (24 Jan. 2012) included bone. Measurable lesions were identified on lung (S 5 right side and S 10 left side), os sacrum, vertebral 9 rib, right femur, occipital, and lymph nodes (mediastenum, retrocaval). The patient received their first dose of 150 mg vismodegib on Study Day 1.
011: patient with metastatic basal cell carcinoma (mBCC). No prior surgery for BCC was reported. No prior topical or systemic therapy for BCC was reported. Sites of metastases at the time of screening included bone and lung. Measurable lesion was identified on the skin of trunk. The patient received their first dose of 150 mg vismodegib on Study Day 1.
005: patient with metastatic basal cell carcinoma (mBCC). Prior surgery for BCC included skin neoplasm excision. Prior radiation directed to head and neck (total dose: 50 Gy). No prior topical or systemic therapy for BCC was reported. Sites of metastasis at the time of screening included neck, sternum and left clavicle. Measurable lesions were identified on neck (supraclavicular region), lung (segment 10 and 3). Non-measurable lesion was identified on sternocleidomastoid muscle and bone (left clavicle and sternum). The patient received their first dose of 150 mg vismodegib on Study Day 1.

medulloblastoma = conditions: one patient; initial response, then no durable response and relapse of the tumor (Rudin et al., 2009); cited from earlier work
SMO-G529S = biological target: T1, SMO-G529S (Homo sapiens, UniProt Q99835, G529S); experiment: GLI-luciferase reporter assay, vismodegib dose response; assay type: cell-based; conditions: C3H10T1/2 cells transfected with SMO-G529S compared with SMO-WT; FIG. 7
T1 construct: expressed in transfected cells; host or cells: C3H10T1/2 cells (ATCC), transient transfection with GeneJuice
Experimental: Six hours later, cells from one well were trypsinized and redistributed over four wells of a 12-well plate. After 16 hours the FBS content of the culture medium was reduced to 0.5% to induce formation of primary cilia, and small molecule Hh inhibitors were added at indicated concentrations. Firefly luciferase activity was determined 24 hours later with the Dual-Glo Luciferase Assay System (Promega) and read using a Wallac EnVision plate reader (Perkin Elmer). Values were divided by renilla luciferase activities to normalize for transfection efficiency. Individual experiments were carried out in duplicate or triplicate and repeated at least once. Dose response data were fit to a 4-parameter equation in GraphPad Prism: […]

SMO-D473H = SMO-D473H (Homo sapiens, UniProt Q99835, D473H); conditions: SMO-D473H mutation from relapsed metastatic MB tumor; cited from earlier work
advanced BCC = conditions: cited from earlier work

T1 sequence (Q99835 28-787 G529S): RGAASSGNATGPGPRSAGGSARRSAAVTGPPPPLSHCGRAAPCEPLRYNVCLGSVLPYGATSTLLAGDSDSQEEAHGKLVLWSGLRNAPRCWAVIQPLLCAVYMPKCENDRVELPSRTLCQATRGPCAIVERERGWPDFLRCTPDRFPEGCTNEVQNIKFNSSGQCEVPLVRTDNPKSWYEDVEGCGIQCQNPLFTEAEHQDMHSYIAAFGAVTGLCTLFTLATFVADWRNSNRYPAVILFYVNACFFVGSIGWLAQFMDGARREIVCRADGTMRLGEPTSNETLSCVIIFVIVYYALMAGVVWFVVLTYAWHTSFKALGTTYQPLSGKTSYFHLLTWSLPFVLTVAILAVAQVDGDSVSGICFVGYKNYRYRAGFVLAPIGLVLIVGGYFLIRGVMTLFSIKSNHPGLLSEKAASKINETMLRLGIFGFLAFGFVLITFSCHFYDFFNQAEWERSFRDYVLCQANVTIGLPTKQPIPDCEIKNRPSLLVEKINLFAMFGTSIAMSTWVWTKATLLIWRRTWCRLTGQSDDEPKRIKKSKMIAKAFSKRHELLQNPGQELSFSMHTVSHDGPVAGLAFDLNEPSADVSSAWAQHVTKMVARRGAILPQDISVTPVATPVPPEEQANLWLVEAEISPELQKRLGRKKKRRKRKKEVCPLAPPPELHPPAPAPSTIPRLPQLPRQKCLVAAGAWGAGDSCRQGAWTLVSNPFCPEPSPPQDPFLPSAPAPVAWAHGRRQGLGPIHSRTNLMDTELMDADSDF
Chain of SMO-D473H (Q99835 28-787 D473H): as the sequence (Q99835 28-787 G529S) above, with D446H, S502G counted along it

## CS(=O)(=O)c1ccc(C(=O)Nc2ccc(Cl)c(-c3ccccn3)c2)c(Cl)c1 [vismodegib]
[1]; patient 001, 150 mg vismodegib
  first PR on target lesions: 397 Study day
  overall response assessment revealed disease progression: 516 Study Day
[1]; patient 002, 150 mg vismodegib
  overall response assessment showed disease progression: 399 Study Day
[1]; patient 002, 150 mg vismodegib, cycle 7
  first PR: 172 Study day
[1]; patient 005, 150 mg vismodegib
  overall response assessment showed progressive disease: 336 Study Day
[1]; patient 008, 150 mg vismodegib
  overall response assessment showed disease progression: 673 Study Day
[1]; patient 011, 150 mg vismodegib
  overall response assessment revealed progressive disease: 310 Study Day
[1]; patient 011, 150 mg vismodegib, cycle 11, Study day 282
  response during treatment: stable disease
medulloblastoma
  response to treatment: dramatic response
SMO-G529S
  sensitivity to vismodegib (Gli-luciferase reporter activity): reduced sensitivity
SMO-D473H
  drug binding in vitro: abrogate drug binding
Advanced BCC; majority of BCC patients (Sekulic et al., 2012)
  clinical outcome of treated BCC patients: clinical benefit, including both complete and partial responses
Advanced BCC; within the first year of treatment, preliminary estimate (Chang and Oro, 2012)
  advanced BCC patients developing resistance to vismodegib: up to 20%
